Measured values taken from US20150344404A1, “PDK4 INHIBITOR AND USE THEREOF” (THE KITASATO INSTITUE, priority 2012, published 2015).
Where two headings read alike, the source gives them in different places.

Legend:
recombinant human PDK4 = recombinant human PDK4 (Homo sapiens, UniProt Q16654); assay: PDK4 enzyme inhibitory activity by off-chip mobility shift assay; format: biochemical; settings: recombinant human PDK4, room temperature, 5 hours
Protocol: Measurement of PDK4/PDK2 inhibitory activity by off-chip mobility shift assay: The compound solution (5 μL), 4×substrate/ATP/metal mixture (5 μL) and 2×recombinant human PDK4 (5 μL) were added to 384 well micro plate. After reacting at room temperature for 5 hours, the reaction stop solution (60 μL) was added to above solution. The substrate peptide (S) and phosphorylated peptide (P) was quantified using LabChip3000, then the inhibitory activity was calculated from the ratio (P/P+S).

PDK isozymes 1, 2 and 3 = settings: background art; cited from earlier work
[1] = background art; cited from earlier work
[2] = Table 34, read-out: IC50, PDK inhibitory activity of representative compounds

recombinant human PDK4, sequence (Q16654 whole entry): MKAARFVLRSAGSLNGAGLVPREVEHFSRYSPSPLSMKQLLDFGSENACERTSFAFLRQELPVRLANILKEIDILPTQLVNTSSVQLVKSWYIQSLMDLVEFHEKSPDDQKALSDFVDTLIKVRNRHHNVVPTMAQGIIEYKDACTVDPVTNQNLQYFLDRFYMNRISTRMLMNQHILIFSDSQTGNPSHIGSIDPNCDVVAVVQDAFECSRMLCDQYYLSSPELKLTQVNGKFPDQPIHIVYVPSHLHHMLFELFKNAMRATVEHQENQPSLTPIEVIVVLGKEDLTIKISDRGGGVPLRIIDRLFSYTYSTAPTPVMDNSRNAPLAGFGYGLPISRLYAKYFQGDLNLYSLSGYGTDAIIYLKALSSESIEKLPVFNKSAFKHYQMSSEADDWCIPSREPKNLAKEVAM

| IC50 (recombinant human PDK4; [2]) | IC50 (recombinant human PDK4; Table 35, read-out: IC50) | SMILES | also measured |
| --- | --- | --- | --- |
| 46 µM | – | CC1=CC(=O)c2cc(C(C)O)ccc2C1=O (racemic) [KIS92, (±)-2-methyl-6-(1-hydroxyethyl)-1,4-naphthoquinone] | – |
| – | – | CN(C)C(=O)c1ccc(S(=O)(=O)c2ccc(NC(=O)[C@@](C)(O)C(F)(F)F)c(Cl)c2)cc1 [AZD7545] | IC50 against PDK isozymes 1, 2 and 3 (PDK isozymes 1, 2 and 3): sub μM order |
| – | – | O=C(O)C(Cl)Cl [Dichloro acetic acid] | side effect [1]: neurotoxicity |
| 38 µM | – | CC1=CC(=O)c2ccccc2C1=O [KIS12] | – |
| 19 µM | – | O=C(O)c1ccc2c(c1)C(=O)C=CC2=O [KIS19] | – |
| 12 µM | – | O=C1CCC(=O)c2c(O)ccc(O)c21 [KIS58] | – |
| 27 µM | – | Cc1cc(N)c2ccccc2c1O [KIS61] | – |
| 26 µM | – | COC1=CC(=O)c2ccccc2C1=O [KIS69] | – |
| 46 µM | – | CC1=CC(=O)c2ccc(C(=O)O)cc2C1=O [KIS78, 7-carboxyl-2-methyl-1,4-naphthoquinone] | – |
| 9 µM | – | COC(=O)c1cc(O)c2c(c1)C(=O)C(C)=CC2=O [KIS79, 7-carbomethoxy-5-hydroxy-2-methyl-1,4-naphthoquinone] | – |
| 20 µM | – | CC1=CC(=O)c2c(O)cc(C(=O)O)cc2C1=O [KIS90, 7-carboxy-5-hydroxy-2-methyl-1,4-naphthoquinone] | – |
| 36 µM | – | CC1=CC(=O)c2cc(C(=O)O)ccc2C1=O [KIS93, 6-carboxyl-2-methyl-1,4-naphthoquinone] | – |
| 26 µM | – | COC(=O)c1ccc2c(c1)C(=O)C=C(C)C2=O [KIS95, 6-carbomethoxy-2-methyl-1,4-naphthoquinone] | – |
| 30 µM | – | CC1=CC(=O)c2cc(CO)ccc2C1=O [KIS96, 6-hydroxymethyl-2-methyl-1,4-naphthoquinone] | – |
| 18 µM | – | CC1=CC(=O)c2cc(C=O)ccc2C1=O [KIS97, 6-formyl-2-methyl-1,4-naphthoquinone] | – |
| 23 µM | – | CC1=CC(=O)c2cc(C(=O)NCC(=O)OC(C)(C)C)ccc2C1=O [KIS98, Glycine, N-[(1,4-dihydro-1,4-dioxo-2-methyl-6-naphthylenyl)carbonyl], tert-butyl ester] | – |
| 21 µM | – | CC1=CC(=O)c2cc(C(=O)NCC(=O)O)ccc2C1=O [KIS99, N-[(1,4-dihydro-1,4-dioxo-2-methyl-6-naphthylenyl)carbonyl]glycine] | – |
| – | 16 µM | CC1=CC(=O)c2ccncc2C1=O [KIS118] | – |
| – | 22 µM | CC1=CC(=O)c2ccc(C=O)cc2C1=O [KIS126] | – |
| – | 26 µM | CCOC(=O)c1ccc2c(c1)C(=O)C=C(C)C2=O [KIS127] | – |
| – | 27 µM | CC1=CC(=O)c2ccc(CO)cc2C1=O [KIS128] | – |
| – | 20 µM | CC1=CC(=O)c2cc(C(=O)N[C@@H](CO)C(=O)O)ccc2C1=O [KIS131, N-[(1,4-dihydro-1,4-dioxo-2-methyl-6-naphthylenyl)carbonyl]serine] | – |
| – | 26 µM | CC1=C(Br)C(=O)c2ccccc2C1=O [KIS147] | – |
| – | 19 µM | CC(=O)OCc1ccc2c(c1)C(=O)C=C(C)C2=O [KIS148] | – |
| – | 17 µM | CC1=CC(=O)c2cc(C=CC(=O)NCC(=O)O)ccc2C1=O [KIS151] | – |
| – | 36 µM | C#CCNC(=O)c1ccc2c(c1)C(=O)C=C(C)C2=O [KIS153] | – |
